PMC5052559, “A fragment-based approach applied to a highly flexible target: Insights and challenges towards the inhibition of HSP70 isoforms” (Scientific Reports, 2016)

What was measured:
[1] = target: T1, HSP72 (Homo sapiens, UniProt P0DMV8); test: Ligand observed NMR (CPMG) binding to HSP72 with ATP competition; conditions: 0.5 mM compound, 20 µM HSP72, ± 100 µM ATP; 1D CPMG
T1 construct: 6xHis followed by HRV 3C protease site (N); made in house; host or cells: E. coli BL21-AI
Procedure: Ligand observed NMR experiments
NMR experiments were conducted at a 1H frequency of 500 MHz using a Bruker Avance 500 spectrometer (Bruker, […]) equipped with a 1.7 mm TXI probe. All data were acquired and processed using Bruker Topspin 3.2. The Relaxation edited 1H-NMR spectrum was acquired at 295K using the CPMG sequence with a spin-lock time of 600 ms. The water signal was suppressed using presaturation during relaxation delay (2 s) and by using the Watergate sequence subsequent to the CPMG sequence. For each spectrum 64 transients were acquired. The three samples for which spectra were collected consisted of 50 mM phosphate buffer at pH 7.5, 10% (v/v) D2O and 0.5 mM compound 30, 0.5 mM compound 30 in the presence of 20 µM HSP72, and 0.5 mM compound 30 in the presence of 20 µM HSP72 and 100 µM ATP respectively (see Figure S 8).

[2] = target: T2, S275W HSC70-NBD (Homo sapiens, UniProt P11142, S275W); test: SPR binding to S275W HSC70-NBD mutant
T2 construct: WT HSPA8 (HSC70) residues 1 to 381; GST (N, cleaved yes); made in house; host or cells: E. coli BL21-AI (expressed as described for FL-HSP72)
Procedure: (§1) SPR experiments were carried out using a Biacore T200 (GE Healthcare) at 25 °C. Amine coupling chemistry was used to immobilise the HSC70 NBD domain and S275W, S275F and S275A HSC70-NBD mutant proteins on a carboxymethyl-5′-dextran (CM5) sensor chip. The chip’s surface was activated with a 10 min injection of a 1:1 mixture of 100 mM N-hydroxysuccinimide and 400 mM 1-ethyl-3-(3-dimethylaminopropyl)-carbodiimide. […] The remaining activated groups on the surface were blocked with a 7 min injection of 1 M ethanolamine at pH 8.5. […] Flow cell one was left unmodified as the reference surface.
(§2) In addition, a DMSO correction curve, prepared as described in the GE manual, was used to correct the effects of the solvent on signal intensity. Raw SPR data from the single point screen was processed and analysed using Pipeline Pilot version 8.0.1.500[37]. Firstly, the reported binding level for each fragment was corrected by subtraction of the buffer blank.
(§3) The initial fragment hits were further investigated in a three-point concentration-response experiment against freshly immobilised WT HSC70-NBD and the S275W HSC70-NBD mutants using the same experimental protocol as for the primary screen. Compound dilutions of 50, 100 and 200 μM were generated using the ECHO 550.

[3] = target: T3, WT HSC70-NBD (Homo sapiens, UniProt P11142); test: SPR binding to wild-type HSC70-NBD
T3 construct: WT HSPA8 (HSC70) residues 1 to 381; GST (N, cleaved yes); made in house; host or cells: E. coli BL21-AI (expressed as described for FL-HSP72)
Procedure: as §1, §2, §3

[4] = target: T4, S275F HSC70-NBD (Homo sapiens, UniProt P11142, S275F); test: SPR binding to S275F HSC70-NBD mutant
T4 construct: WT HSPA8 (HSC70) residues 1 to 381; GST (N, cleaved yes); made in house; host or cells: E. coli BL21-AI (expressed as described for FL-HSP72)
Procedure: SPR experiments were carried out using a Biacore T200 (GE Healthcare) at 25 °C. Amine coupling chemistry was used to immobilise the HSC70 NBD domain and S275W, S275F and S275A HSC70-NBD mutant proteins on a carboxymethyl-5′-dextran (CM5) sensor chip. The chip’s surface was activated with a 10 min injection of a 1:1 mixture of 100 mM N-hydroxysuccinimide and 400 mM 1-ethyl-3-(3-dimethylaminopropyl)-carbodiimide. The HSC70 proteins (70 μg/mL in 10 mM sodium acetate, 750 μM ADP, pH 5.0) were immobilised on the surface over a 10 min injection period. The remaining activated groups on the surface were blocked with a 7 min injection of 1 M ethanolamine at pH 8.5. For all the above procedures the flow rate was maintained at 10 μL/min and a 1x phosphate buffered saline running buffer (PBS running buffer: 10 mM NaHPO4/NaH2PO4 pH 7.4, 2.7 mM KCl, 137 mM NaCl) was used during immobilisation. Approximately ~13,000 response units (RU) of protein could be routinely captured on the CM5 chip on flow cells two to four. Flow cell one was left unmodified as the reference surface. Our in-house fragment library of 1962 fragments at a stock concentration of 100 mM in 100% (v/v) was screened. SPR screening plates were prepared by dispensing of 0.1 μL of each fragment in 384-well polypropylene V-bottomed plates (Greiner) using an ECHO 550 acoustic liquid dispenser (Labcyte) followed by addition of fresh DMSO and running buffer to give a final fragment concentration of 125 μM in 5% (v/v) DMSO in an assay volume of 80 μL.
The full fragment screen was carried out against freshly immobilised WT-HSC70 NBD and the S275W and S275F HSC70-NBD mutants, using the same experimental setting as for the clean screen and a final fragment concentration of 125 μM. Injections of running buffer and of 125 μM adenosine, which was used as a positive control to monitor the health of the protein, were carried out at intervals of 35 cycles throughout the screen. In addition, a DMSO correction curve, prepared as described in the GE manual, was used to correct the effects of the solvent on signal intensity. Raw SPR data from the single point screen was processed and analysed using Pipeline Pilot version 8.0.1.500[37]. Firstly, the reported binding level for each fragment was corrected by subtraction of the buffer blank. Secondly, the values were corrected for the molecular weight of each fragment and the binding was normalised to the binding level observed for the closest adenosine control. […] However, fragments with a binding level exceeding two times the theoretical Rmax were excluded, as we considered this an indication of superstoichiometric binding. Finally, fragments showing preferred binding to wild-type HSC70-NBD versus the HSC70-NBD mutants with a blocked adenine sub pocket were identified by plotting the binding levels of the fragments to wild-type HSC70-NBD against the binding levels of the respective mutant HSC70-NBD variants and added to the primary hit list. In total this procedure yielded 54 initial fragment hits.

[5] = target: HSP70; parameters: method as in PMID 19256508; conditions: read-out: SPR Kd; cited from earlier work

T3 sequence (P11142 1-381): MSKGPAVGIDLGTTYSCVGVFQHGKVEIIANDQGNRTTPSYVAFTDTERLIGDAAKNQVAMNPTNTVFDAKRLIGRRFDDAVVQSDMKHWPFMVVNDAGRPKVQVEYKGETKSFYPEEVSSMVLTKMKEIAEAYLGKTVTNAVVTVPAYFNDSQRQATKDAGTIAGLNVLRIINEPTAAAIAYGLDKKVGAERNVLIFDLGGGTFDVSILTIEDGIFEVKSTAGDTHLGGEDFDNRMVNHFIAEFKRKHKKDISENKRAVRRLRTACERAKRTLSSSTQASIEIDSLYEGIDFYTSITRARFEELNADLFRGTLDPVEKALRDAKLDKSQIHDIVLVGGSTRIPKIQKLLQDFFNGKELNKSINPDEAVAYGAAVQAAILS
T2 sequence (P11142 1-381 S275W): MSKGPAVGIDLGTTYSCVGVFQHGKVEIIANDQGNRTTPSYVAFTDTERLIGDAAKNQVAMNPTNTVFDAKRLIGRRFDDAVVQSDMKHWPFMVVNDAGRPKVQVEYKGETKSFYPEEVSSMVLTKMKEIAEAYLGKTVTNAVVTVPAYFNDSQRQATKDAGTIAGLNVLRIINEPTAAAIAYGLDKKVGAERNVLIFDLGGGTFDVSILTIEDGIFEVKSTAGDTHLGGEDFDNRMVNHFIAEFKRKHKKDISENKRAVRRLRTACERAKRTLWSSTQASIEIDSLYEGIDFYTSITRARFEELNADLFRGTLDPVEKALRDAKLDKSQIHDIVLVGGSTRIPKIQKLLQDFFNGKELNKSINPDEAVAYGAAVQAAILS
T1 sequence (P0DMV8 whole entry): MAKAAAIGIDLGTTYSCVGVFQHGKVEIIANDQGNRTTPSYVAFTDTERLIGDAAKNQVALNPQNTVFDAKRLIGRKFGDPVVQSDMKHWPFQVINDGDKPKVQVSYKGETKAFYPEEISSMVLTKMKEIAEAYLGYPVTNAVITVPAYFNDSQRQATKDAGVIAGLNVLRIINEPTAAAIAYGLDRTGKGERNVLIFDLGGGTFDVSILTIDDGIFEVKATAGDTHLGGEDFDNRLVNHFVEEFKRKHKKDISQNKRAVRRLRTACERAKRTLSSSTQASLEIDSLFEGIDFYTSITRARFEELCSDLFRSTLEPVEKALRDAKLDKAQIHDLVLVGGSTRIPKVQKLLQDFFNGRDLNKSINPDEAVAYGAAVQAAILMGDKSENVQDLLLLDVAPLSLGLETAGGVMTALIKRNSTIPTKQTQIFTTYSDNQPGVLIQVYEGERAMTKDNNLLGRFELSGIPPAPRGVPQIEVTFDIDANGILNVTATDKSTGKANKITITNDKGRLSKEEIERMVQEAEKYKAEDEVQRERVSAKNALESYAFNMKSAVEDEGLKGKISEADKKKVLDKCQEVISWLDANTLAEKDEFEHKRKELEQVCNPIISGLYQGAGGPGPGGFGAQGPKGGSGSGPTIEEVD
T4 sequence (P11142 1-381 S275F): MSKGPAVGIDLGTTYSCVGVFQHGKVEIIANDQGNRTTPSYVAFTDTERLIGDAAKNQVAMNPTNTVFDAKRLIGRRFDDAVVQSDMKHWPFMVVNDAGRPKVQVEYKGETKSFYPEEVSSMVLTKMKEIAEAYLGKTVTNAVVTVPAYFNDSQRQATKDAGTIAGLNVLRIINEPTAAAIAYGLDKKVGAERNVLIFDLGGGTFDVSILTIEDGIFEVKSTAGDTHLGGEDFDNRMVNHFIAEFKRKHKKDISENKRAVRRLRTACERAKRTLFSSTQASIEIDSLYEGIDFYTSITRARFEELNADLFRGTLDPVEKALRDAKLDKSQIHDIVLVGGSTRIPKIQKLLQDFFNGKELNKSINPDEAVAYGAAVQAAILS

SMILES	binding to HSP72 by ligand observed NMR [1]	Kd S275W HSC70-NBD ([2]; single measurement)	Kd ([3]; SPR, 25 °C, mean ± standard deviation or standard error, triplicate unless marked duplicate/single) [µM]	LE (ligand efficiency) ([3]; calculated using the SPR Kd on WT HSC70-NBD)	binding to S275F HSC70-NBD mutant (in words) [4]	binding to S275W HSC70-NBD mutant (in words) [2]	Kd [5] [µM]
OC[C@H]1C[C@@H](Nc2ncnc3cccc(OCc4ccccn4)c23)[C@H](O)[C@@H]1O [Compound 30]	bind in the ATP-binding site	No binding	75	0.20			
N#Cc1ccc(COC[C@H]2O[C@@H](n3c(NCc4ccc(Cl)c(Cl)c4)nc4c(N)ncnc43)[C@H](O)[C@@H]2O)cc1 [Compound 1, VER-155008]					abolished binding	abolished binding	0.3
